# PMC6390583 (BMC rheumatology, 2018)
# Values joined by “and” are separate entries in the source; they are usually repeats but may differ in a detail not shown here. Equal entries are not always repeated.
# What was measured:
# Assay in all cases: trFRET binding kinome profiling
# [1] = biological target: CDK7/Cyclin H/Mat1 (Homo sapiens, UniProt P50613)
# Procedure: (§1) JAK activity assays using isolated kinase domains in the presence of 0.1 mM ATP and trFRET kinome profiling were conducted as described previously (17).
# [2] = biological target: PKG1A (Homo sapiens, UniProt Q13976)
# Procedure: as §1
# [3] = biological target: CAMKK2 (Homo sapiens, UniProt Q96RR4)
# Procedure: as §1
# [4] = biological target: CDK9/Cyclin K (Homo sapiens, UniProt P50750)
# Procedure: as §1
# [5] = biological target: AMPK
# Procedure: as §1
# [6] = biological target: MST1 (Homo sapiens, UniProt Q13043)
# Procedure: as §1
# [7] = biological target: MAP2K3 (Homo sapiens, UniProt P46734)
# Procedure: as §1
# [8] = biological target: PKCzeta (Homo sapiens, UniProt Q05513)
# Procedure: as §1
# [9] = biological target: KDR (Homo sapiens, UniProt P35968)
# Procedure: as §1
# [10] = biological target: DYRK1B (Homo sapiens, UniProt Q9Y463)
# Procedure: as §1
# [11] = biological target: PDGFRB (Homo sapiens, UniProt P09619)
# Procedure: as §1
# [12] = biological target: PKCtheta (Homo sapiens, UniProt Q04759)
# Procedure: as §1
# [13] = biological target: T1, PAK4KD (Homo sapiens, UniProt O96013)
# T1 construct: PAK4KD
# Procedure: as §1
# [14] = biological target: Rsk2 (Homo sapiens, UniProt P51812)
# Rsk2, sequence (P51812 whole entry, species assumed): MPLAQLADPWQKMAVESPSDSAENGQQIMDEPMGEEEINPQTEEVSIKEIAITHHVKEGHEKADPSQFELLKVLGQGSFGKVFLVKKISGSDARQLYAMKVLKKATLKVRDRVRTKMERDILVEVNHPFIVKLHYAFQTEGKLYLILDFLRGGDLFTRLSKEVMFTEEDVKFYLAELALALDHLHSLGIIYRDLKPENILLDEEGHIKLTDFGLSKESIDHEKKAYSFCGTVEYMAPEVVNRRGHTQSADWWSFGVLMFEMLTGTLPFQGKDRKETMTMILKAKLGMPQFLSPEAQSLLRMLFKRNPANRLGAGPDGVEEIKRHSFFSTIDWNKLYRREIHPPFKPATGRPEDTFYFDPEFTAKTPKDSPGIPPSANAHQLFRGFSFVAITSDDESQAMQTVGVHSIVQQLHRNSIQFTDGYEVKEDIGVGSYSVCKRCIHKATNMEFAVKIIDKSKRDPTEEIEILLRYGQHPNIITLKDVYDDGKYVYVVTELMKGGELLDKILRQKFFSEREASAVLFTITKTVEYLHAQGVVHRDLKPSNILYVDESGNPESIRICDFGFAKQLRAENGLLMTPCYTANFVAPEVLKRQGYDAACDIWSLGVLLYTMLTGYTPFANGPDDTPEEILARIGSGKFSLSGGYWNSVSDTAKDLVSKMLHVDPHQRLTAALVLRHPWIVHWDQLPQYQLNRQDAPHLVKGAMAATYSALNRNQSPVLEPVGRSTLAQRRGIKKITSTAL
# Procedure: as §1
# [15] = biological target: MEK2 (Homo sapiens, UniProt P36507)
# MEK2, sequence (P36507 whole entry, species assumed): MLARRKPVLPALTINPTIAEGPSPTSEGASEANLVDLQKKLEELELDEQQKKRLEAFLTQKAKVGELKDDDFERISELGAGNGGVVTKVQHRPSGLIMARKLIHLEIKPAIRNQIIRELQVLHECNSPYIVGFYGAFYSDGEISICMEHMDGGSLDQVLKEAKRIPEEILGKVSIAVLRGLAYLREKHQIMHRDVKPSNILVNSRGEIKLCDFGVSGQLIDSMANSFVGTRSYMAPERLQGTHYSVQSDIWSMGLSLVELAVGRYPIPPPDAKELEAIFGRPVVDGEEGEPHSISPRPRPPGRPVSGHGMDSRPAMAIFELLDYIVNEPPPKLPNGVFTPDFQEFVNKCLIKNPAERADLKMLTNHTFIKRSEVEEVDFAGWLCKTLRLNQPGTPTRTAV
# Procedure: as §1
# [16] = biological target: JNK2 (Homo sapiens, UniProt P45984)
# Procedure: as §1
# [17] = biological target: Gsk3a (Homo sapiens, UniProt P49840)
# Procedure: as §1
# [18] = biological target: TYRO3 (Homo sapiens, UniProt Q06418)
# Procedure: as §1
# [19] = biological target: TrkB (Homo sapiens, UniProt Q16620)
# Procedure: as §1
# [20] = biological target: Rock2 (Homo sapiens, UniProt O75116)
# Procedure: as §1
# [21] = biological target: MEK1 (Homo sapiens, UniProt Q02750)
# Procedure: as §1
# [22] = biological target: EGFR (Homo sapiens, UniProt P00533)
# Procedure: as §1
# [23] = biological target: TrkA (Homo sapiens, UniProt P04629)
# Procedure: as §1
# [24] = biological target: Erk2 (Homo sapiens, UniProt P28482)
# Erk2, sequence (P28482 whole entry, species assumed): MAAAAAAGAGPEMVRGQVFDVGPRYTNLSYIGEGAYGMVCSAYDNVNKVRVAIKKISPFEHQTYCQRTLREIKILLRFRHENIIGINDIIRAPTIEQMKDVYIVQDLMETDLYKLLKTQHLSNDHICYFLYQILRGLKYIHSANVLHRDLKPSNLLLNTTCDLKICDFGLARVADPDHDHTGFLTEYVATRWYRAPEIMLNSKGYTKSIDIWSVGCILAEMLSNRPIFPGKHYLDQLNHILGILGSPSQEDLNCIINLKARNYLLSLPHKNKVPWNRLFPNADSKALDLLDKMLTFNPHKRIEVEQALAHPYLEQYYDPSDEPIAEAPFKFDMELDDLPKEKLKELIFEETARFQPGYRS
# Procedure: as §1
# [25] = biological target: CLK2 (Homo sapiens, UniProt P49760)
# Procedure: as §1
# [26] = biological target: IGF1R (Homo sapiens, UniProt P08069)
# Procedure: as §1
# [27] = biological target: Prkcn (Homo sapiens, UniProt O94806)
# Procedure: as §1
# [28] = biological target: Plk3 (Homo sapiens, UniProt Q9H4B4)
# Procedure: as §1
# [29] = biological target: MAP4K2 (Homo sapiens, UniProt Q12851)
# Procedure: as §1
# [30] = biological target: DYRK1A (Homo sapiens, UniProt Q13627)
# Procedure: as §1
# [31] = biological target: Aurora 1 (Homo sapiens, UniProt Q96GD4)
# Procedure: as §1
# [32] = biological target: Fyn (Homo sapiens, UniProt P06241)
# Fyn, sequence (P06241 whole entry, species assumed): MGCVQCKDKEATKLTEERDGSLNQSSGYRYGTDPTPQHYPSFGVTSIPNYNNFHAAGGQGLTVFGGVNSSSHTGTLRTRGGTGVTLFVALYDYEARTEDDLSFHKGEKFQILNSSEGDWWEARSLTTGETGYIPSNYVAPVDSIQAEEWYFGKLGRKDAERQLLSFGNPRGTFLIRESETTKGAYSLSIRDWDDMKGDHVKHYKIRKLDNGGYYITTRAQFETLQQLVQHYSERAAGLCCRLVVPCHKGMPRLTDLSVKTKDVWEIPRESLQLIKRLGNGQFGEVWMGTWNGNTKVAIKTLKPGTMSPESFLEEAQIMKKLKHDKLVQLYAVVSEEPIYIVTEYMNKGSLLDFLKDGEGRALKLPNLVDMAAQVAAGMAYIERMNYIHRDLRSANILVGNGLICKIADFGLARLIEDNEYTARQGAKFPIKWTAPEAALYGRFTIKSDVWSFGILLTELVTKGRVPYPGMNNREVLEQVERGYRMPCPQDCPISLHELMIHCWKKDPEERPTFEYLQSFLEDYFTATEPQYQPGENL
# Procedure: as §1
# [33] = biological target: TBK1 (Homo sapiens, UniProt Q9UHD2)
# Procedure: as §1
# [34] = biological target: Rock1 (Homo sapiens, UniProt Q13464)
# Rock1, sequence (Q13464 whole entry, species assumed): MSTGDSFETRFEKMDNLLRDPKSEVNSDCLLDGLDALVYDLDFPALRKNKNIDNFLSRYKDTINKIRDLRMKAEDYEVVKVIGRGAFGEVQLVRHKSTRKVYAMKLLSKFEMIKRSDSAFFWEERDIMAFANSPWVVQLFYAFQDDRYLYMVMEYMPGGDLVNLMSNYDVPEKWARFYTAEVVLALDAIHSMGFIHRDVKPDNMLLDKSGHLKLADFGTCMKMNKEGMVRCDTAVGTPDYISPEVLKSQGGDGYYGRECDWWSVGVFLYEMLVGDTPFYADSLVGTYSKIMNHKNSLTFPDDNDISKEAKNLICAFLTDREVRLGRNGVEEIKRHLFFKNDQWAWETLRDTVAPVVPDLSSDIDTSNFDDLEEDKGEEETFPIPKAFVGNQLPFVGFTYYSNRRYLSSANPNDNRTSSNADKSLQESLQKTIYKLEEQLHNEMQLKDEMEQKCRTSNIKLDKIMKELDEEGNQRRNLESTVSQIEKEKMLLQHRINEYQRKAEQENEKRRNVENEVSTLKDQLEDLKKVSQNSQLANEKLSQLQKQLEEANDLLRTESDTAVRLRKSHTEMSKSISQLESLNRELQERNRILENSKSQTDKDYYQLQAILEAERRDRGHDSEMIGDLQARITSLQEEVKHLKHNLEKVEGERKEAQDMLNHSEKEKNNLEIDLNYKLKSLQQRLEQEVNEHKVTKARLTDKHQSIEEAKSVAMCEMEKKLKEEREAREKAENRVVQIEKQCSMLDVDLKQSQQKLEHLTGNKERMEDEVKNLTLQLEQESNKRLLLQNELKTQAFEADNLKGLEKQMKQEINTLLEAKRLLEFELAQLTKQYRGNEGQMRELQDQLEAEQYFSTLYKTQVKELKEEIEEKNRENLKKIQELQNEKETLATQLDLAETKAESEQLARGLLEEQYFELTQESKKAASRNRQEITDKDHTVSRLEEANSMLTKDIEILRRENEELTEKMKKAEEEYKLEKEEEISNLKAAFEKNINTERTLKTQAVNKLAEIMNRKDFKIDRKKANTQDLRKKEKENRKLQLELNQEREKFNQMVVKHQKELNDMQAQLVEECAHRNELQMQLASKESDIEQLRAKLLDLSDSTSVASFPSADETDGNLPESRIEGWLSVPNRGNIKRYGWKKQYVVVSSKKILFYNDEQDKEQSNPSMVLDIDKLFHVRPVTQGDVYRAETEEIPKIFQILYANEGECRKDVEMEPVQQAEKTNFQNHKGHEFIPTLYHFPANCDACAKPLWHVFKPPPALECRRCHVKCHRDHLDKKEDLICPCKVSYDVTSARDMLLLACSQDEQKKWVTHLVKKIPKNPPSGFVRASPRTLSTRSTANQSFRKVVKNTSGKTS
# Procedure: as §1
# [35] = biological target: Zipk (Homo sapiens, UniProt O43293)
# Procedure: as §1
# [36] = biological target: BTK (Homo sapiens, UniProt Q06187)
# BTK, sequence (Q06187 whole entry, species assumed): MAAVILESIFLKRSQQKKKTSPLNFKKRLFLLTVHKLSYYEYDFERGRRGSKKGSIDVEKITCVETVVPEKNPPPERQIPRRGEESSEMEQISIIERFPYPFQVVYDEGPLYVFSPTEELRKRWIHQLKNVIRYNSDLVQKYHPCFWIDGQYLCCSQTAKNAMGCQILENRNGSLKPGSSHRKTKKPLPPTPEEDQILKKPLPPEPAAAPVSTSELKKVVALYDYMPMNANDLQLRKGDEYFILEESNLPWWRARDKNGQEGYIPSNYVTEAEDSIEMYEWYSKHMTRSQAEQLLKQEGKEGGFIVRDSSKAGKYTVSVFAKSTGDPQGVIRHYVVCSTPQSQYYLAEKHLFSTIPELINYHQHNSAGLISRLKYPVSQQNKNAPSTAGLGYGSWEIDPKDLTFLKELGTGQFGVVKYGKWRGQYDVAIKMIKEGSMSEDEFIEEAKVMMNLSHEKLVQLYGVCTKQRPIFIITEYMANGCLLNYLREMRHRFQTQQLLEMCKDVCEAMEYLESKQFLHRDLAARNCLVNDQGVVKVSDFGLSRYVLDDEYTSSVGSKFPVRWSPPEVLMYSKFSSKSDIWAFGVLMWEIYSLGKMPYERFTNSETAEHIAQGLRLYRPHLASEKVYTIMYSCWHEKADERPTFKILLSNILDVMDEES
# Procedure: as §1
# [37] = biological target: IKKE (Homo sapiens, UniProt Q14164)
# Procedure: as §1
# [38] = biological target: Ck1alpha1 (Homo sapiens, UniProt P48729)
# Ck1alpha1, sequence (P48729 whole entry): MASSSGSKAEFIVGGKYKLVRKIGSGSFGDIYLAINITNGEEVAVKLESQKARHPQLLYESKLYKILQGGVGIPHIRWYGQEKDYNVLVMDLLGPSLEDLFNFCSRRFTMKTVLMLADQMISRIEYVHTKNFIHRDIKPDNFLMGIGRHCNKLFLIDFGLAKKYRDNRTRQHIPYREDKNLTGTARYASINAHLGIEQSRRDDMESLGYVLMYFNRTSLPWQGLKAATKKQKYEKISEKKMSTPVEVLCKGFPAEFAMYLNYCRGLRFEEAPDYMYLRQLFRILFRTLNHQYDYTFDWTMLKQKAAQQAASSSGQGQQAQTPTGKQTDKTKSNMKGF
# Procedure: as §1
# [39] = biological target: Wee1 (Homo sapiens, UniProt P30291)
# Wee1, sequence (P30291 whole entry, species assumed): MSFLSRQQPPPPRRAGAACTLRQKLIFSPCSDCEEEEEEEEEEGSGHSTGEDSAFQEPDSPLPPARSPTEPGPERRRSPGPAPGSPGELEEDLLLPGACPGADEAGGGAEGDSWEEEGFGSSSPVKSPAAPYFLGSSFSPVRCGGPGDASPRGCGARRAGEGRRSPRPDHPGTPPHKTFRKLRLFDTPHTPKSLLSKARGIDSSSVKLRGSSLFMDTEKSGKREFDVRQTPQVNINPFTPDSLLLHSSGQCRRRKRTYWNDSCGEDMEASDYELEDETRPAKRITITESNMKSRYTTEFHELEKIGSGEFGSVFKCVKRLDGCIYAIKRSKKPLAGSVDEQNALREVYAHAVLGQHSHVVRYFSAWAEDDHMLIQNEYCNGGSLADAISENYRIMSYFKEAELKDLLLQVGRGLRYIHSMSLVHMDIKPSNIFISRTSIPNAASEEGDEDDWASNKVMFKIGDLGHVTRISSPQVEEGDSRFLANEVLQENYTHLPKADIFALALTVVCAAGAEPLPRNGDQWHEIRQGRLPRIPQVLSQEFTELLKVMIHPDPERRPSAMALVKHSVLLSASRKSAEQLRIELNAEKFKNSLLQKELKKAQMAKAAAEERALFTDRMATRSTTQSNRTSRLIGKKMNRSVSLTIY
# Procedure: as §1
# [40] = biological target: TrkC (Homo sapiens, UniProt Q16288)
# Procedure: as §1
# [41] = biological target: Src (Homo sapiens, UniProt P12931)
# Procedure: as §1
# [42] = biological target: p38 alpha (Homo sapiens, UniProt Q16539)
# Procedure: as §1
compound,measurement,setting,value
"CC[C@@H]1CN(C(=O)NCC(F)(F)F)C[C@@H]1c1cnc2cnc3[nH]ccc3n12 [upadacitinib, (3S,4R)-3-ethyl-4-(3H-imidazo [1,2-a]pyrrolo [2,3-e]pyrazin-8-yl)-N-(2,2,2-trifluoroethyl) pyrrolidine-1-carboxamide]",IC50,[1],> 10 µM
same,IC50,[2],> 10 µM
same,IC50,[3],> 10 µM
same,IC50,[4],> 10 µM
same,IC50,[5],> 4.5 µM
same,IC50,[6],> 10 µM
same,IC50,[7],> 10 µM
same,IC50,[8],> 10 µM
same,IC50,[9],> 1.5 µM
same,IC50,[10],> 10 µM
same,IC50,[11],> 10 µM
same,IC50,[12],5.1 µM
same,IC50,[13],> 10 µM
same,IC50,[14],> 9.6 µM
same,IC50,[15],> 10 µM
same,IC50,[16],> 10 µM
same,IC50,[17],> 10 µM
same,IC50,[18],> 10 µM
same,IC50,[19],> 10 µM
same,IC50,[20],< 1 µM
same,IC50,[21],> 10 µM
same,IC50,[22],> 10 µM
same,IC50,[23],> 10 µM
same,IC50,[24],> 10 µM
same,IC50,[25],> 10 µM
same,IC50,[26],> 10 µM
same,IC50,[27],> 10 µM
same,IC50,[28],> 10 µM
same,IC50,[29],> 10 µM
same,IC50,[30],> 10 µM
same,IC50,[31],> 5.5 µM
same,IC50,[32],> 10 µM
same,IC50,[33],> 10 µM
same,IC50,[34],< 1 µM and 0.92 µM
same,IC50,[35],> 10 µM
same,IC50,[36],> 10 µM
same,IC50,[37],> 10 µM
same,IC50,[38],> 10 µM
same,IC50,[39],> 10 µM
same,IC50,[40],> 10 µM
same,IC50,[41],> 10 µM
same,IC50,[42],> 10 µM
